Literature values, collected in PMC12843750, “Integrated Biomimetic 2D-LC and Permeapad® Assay for Profiling the Transdermal Diffusion of Pharmaceutical Compounds” (Molecules, 2026).

Details: ref Drugbank

For `CC(=O)Nc1ccc(O)cc1` [Paracetamol], the pKa is given as 9.46.
